Experimental data published in the supplement of paper PMC4862054.

system: CAL-85-1; experiment: normalised response (% of control), CellTiter-Glo; higher = more viable cells (100 = DMSO, 0 = benzethonium chloride kill control); conditions: incubation time: 72 h
Description: (§1)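 DSRT, 72 h incubation, CellTox Green / CellTiter-Glo readout. Signal is normalised to DMSO and benzethonium chloride controls. Value is the normalised response at dose 3.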

In order of falling normalised response:
1. CO[C@H]1/C=C\C=C(/C)C(=O)NC2=CC(=O)C(NCCN(C)C)=C(C[C@@H](C)C[C@H](OC)[C@H](O)[C@@H](C)/C=C(\C)[C@@H]1OC(N)=O)C2=O [Alvespimycin] (10 nM)  104%
2. COc1cc([C@@H]2c3cc4c(cc3[C@@H](O[C@@H]3O[C@@H]5CO[C@@H](C)O[C@H]5[C@H](O)[C@H]3O)[C@H]3COC(=O)[C@H]23)OCO4)cc(OC)c1O [Etoposide] (100 nM)  102%
3. NC(=O)Nc1cc(-c2cccc(F)c2)sc1C(=O)N[C@H]1CCCNC1 [AZD7762] (10 nM)  97.5%
4. COc1cc2ncnc(Nc3ccc(F)c(Cl)c3)c2cc1NC(=O)/C=C/CN1CCCCC1 [Dacomitinib] (10 nM)  84.2%

system: MDA-MB-468; experiment: as above; conditions: incubation time: 72 h
Description: as §1

In order of rising normalised response:
1. COc1cc2ncnc(Nc3ccc(F)c(Cl)c3)c2cc1NC(=O)/C=C/CN1CCCCC1 [Dacomitinib] (10 nM)  78.8%
2. N.N.[Cl][Pt][Cl] [Cisplatin] (10 nM)  85.3%
3. Cc1ccc(C(=O)N(CCCN)[C@@H](c2oc3cc(Cl)ccc3c(=O)c2Cc2ccccc2)C(C)C)cc1 (1 nM)  93.9%
4. CO[C@H]1/C=C\C=C(/C)C(=O)NC2=CC(=O)C(NCCN(C)C)=C(C[C@@H](C)C[C@H](OC)[C@H](O)[C@@H](C)/C=C(\C)[C@@H]1OC(N)=O)C2=O [Alvespimycin] (10 nM)  94.8%
5. COc1cc([C@@H]2c3cc4c(cc3[C@@H](O[C@@H]3O[C@@H]5CO[C@@H](C)O[C@H]5[C@H](O)[C@H]3O)[C@H]3COC(=O)[C@H]23)OCO4)cc(OC)c1O [Etoposide] (100 nM)  100%
6. NC(=O)Nc1cc(-c2cccc(F)c2)sc1C(=O)N[C@H]1CCCNC1 [AZD7762] (10 nM)  102%
7. CC(C)Cn1cnc2c(N)nc3ccccc3c21 [Imiquimod] (25 nM)  104%
8. Cc1ccc(C(=O)Nc2ccc(CN3CCN(C)CC3)c(C(F)(F)F)c2)cc1C#Cc1cnc2cccnn12 [Ponatinib] (10 nM)  106%
9. Clc1ccc(Nc2nnc(Cc3ccncc3)c3ccccc23)cc1 [Vatalanib] (100 nM)  108%

system: HDQ-P1; experiment: normalised response (% of control), CellTox Green; higher = less cell death (100 = DMSO, 0 = benzethonium chloride kill control); conditions: incubation time: 72 h
Procedure, shortened: (§2)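 A 20 µl suspension of breast cancer cells was seeded into each well of 384-well plates containing compound at 5 concentrations in 10-fold steps over a compound-specific 10,000-fold range. After 72 h incubation, CellTox Green fluorescence (485/520 nm) was read first, and CellTiter-Glo luminescence was read after 10 min at room temperature. Each plate was normalised against 0.1 % DMSO (100) and a positive kill control (0), and each value is the normalised signal at one concentration.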

In order of rising normalised response:
1. COc1cc2ncnc(Nc3ccc(F)c(Cl)c3)c2cc1NC(=O)/C=C/CN1CCCCC1 [Dacomitinib] (10 nM)  50%
2. CC(C)Cn1cnc2c(N)nc3ccccc3c21 [Imiquimod] (25 nM)  74.9%
3. CO[C@H]1/C=C\C=C(/C)C(=O)NC2=CC(=O)C(NCCN(C)C)=C(C[C@@H](C)C[C@H](OC)[C@H](O)[C@@H](C)/C=C(\C)[C@@H]1OC(N)=O)C2=O [Alvespimycin] (10 nM)  90.8%
4. COc1cc([C@@H]2c3cc4c(cc3[C@@H](O[C@@H]3O[C@@H]5CO[C@@H](C)O[C@H]5[C@H](O)[C@H]3O)[C@H]3COC(=O)[C@H]23)OCO4)cc(OC)c1O [Etoposide] (100 nM)  92%
5. Cc1ccc(C(=O)N(CCCN)[C@@H](c2oc3cc(Cl)ccc3c(=O)c2Cc2ccccc2)C(C)C)cc1 (1 nM)  100%
6. NC(=O)Nc1cc(-c2cccc(F)c2)sc1C(=O)N[C@H]1CCCNC1 [AZD7762] (10 nM)  108%
7. Clc1ccc(Nc2nnc(Cc3ccncc3)c3ccccc23)cc1 [Vatalanib] (100 nM)  109%
8. N.N.[Cl][Pt][Cl] [Cisplatin] (10 nM)  109%

system: MFM-223; experiment: as above; conditions: incubation time: 72 h
Procedure, shortened: as §2

In order of rising normalised response:
1. Cc1ccc(C(=O)Nc2ccc(CN3CCN(C)CC3)c(C(F)(F)F)c2)cc1C#Cc1cnc2cccnn12 [Ponatinib] (10 nM)  77.6%
2. Cc1ccc(C(=O)N(CCCN)[C@@H](c2oc3cc(Cl)ccc3c(=O)c2Cc2ccccc2)C(C)C)cc1 (1 nM)  100%
3. COc1cc2ncnc(Nc3ccc(F)c(Cl)c3)c2cc1NC(=O)/C=C/CN1CCCCC1 [Dacomitinib] (10 nM)  100%
4. Clc1ccc(Nc2nnc(Cc3ccncc3)c3ccccc23)cc1 [Vatalanib] (100 nM)  103%
5. COc1cc([C@@H]2c3cc4c(cc3[C@@H](O[C@@H]3O[C@@H]5CO[C@@H](C)O[C@H]5[C@H](O)[C@H]3O)[C@H]3COC(=O)[C@H]23)OCO4)cc(OC)c1O [Etoposide] (100 nM)  104%
6. NC(=O)Nc1cc(-c2cccc(F)c2)sc1C(=O)N[C@H]1CCCNC1 [AZD7762] (10 nM)  104%
7. CO[C@H]1/C=C\C=C(/C)C(=O)NC2=CC(=O)C(NCCN(C)C)=C(C[C@@H](C)C[C@H](OC)[C@H](O)[C@@H](C)/C=C(\C)[C@@H]1OC(N)=O)C2=O [Alvespimycin] (10 nM)  104%
8. CC(C)Cn1cnc2c(N)nc3ccccc3c21 [Imiquimod] (25 nM)  105%
9. N.N.[Cl][Pt][Cl] [Cisplatin] (10 nM)  105%

system: MDA-MB-231; experiment: as above; conditions: incubation time: 72 h
Procedure, shortened: as §2

In order of rising normalised response:
1. CO[C@H]1/C=C\C=C(/C)C(=O)NC2=CC(=O)C(NCCN(C)C)=C(C[C@@H](C)C[C@H](OC)[C@H](O)[C@@H](C)/C=C(\C)[C@@H]1OC(N)=O)C2=O [Alvespimycin] (10 nM)  85.3%
2. CC(C)Cn1cnc2c(N)nc3ccccc3c21 [Imiquimod] (25 nM)  100%
3. Cc1ccc(C(=O)N(CCCN)[C@@H](c2oc3cc(Cl)ccc3c(=O)c2Cc2ccccc2)C(C)C)cc1 (1 nM)  102%
4. Clc1ccc(Nc2nnc(Cc3ccncc3)c3ccccc23)cc1 [Vatalanib] (100 nM)  102%
5. COc1cc2ncnc(Nc3ccc(F)c(Cl)c3)c2cc1NC(=O)/C=C/CN1CCCCC1 [Dacomitinib] (10 nM)  103%
6. NC(=O)Nc1cc(-c2cccc(F)c2)sc1C(=O)N[C@H]1CCCNC1 [AZD7762] (10 nM)  104%
7. COc1cc([C@@H]2c3cc4c(cc3[C@@H](O[C@@H]3O[C@@H]5CO[C@@H](C)O[C@H]5[C@H](O)[C@H]3O)[C@H]3COC(=O)[C@H]23)OCO4)cc(OC)c1O [Etoposide] (100 nM)  112%
8. N.N.[Cl][Pt][Cl] [Cisplatin] (10 nM)  114%

system: DU-4475; experiment: as above; conditions: incubation time: 72 h
Procedure, shortened: as §2

In the case of CC(C)Cn1cnc2c(N)nc3ccccc3c21 [Imiquimod] (25 nM), the normalised response is reported as 102%.
